Laboratory results taken from US20230365590A1, “BIPHENYL COMPOUND AS IMMUNOMODULATOR, PREPARATION METHOD THEREFOR AND APPLICATION THEREOF” (SHENZHEN CHIPSCREEN BIOSCIENCES CO., LTD., priority 2020, published 2023).

Columns and labels:
[1] = Single-dosing pharmacokinetics test; format: in vivo, B-hPD-1/hPD-L1 female mice; conditions: female, B-hPD-1/hPD-L1 (humanized), mouse, po; humanized mice, single dose of 100 mg/kg by gavage, plasma
Description: 24 6-week old B-hPD-1/hPD-L1 female mice (purchased from Biocytogen (Jiangsu) Gene Biotechnology Co., Ltd.) were taken and the test compound was dissolved in a solvent containing 5% DMSO, 60% PEG400 and 35% purified water. The compound I-6 and three control molecules, Example 17, Compound 14 (INCB086550) and Example 180 were dosed. The compound was administered by gavage in a single dose of 100 mg/kg and blood was collected through fundus vein plexus after administration. The time points for blood collection were 15 min, 30 min, 1 h, 2 h, 4 h, 8 h, 24 h, 32 h and 48 h. About 0.1 mL of blood was collected and centrifuged in a centrifuge tube (heparin sodium anticoagulation) at 5000 rpm for 5 min to separate plasma, and then frozen at −20° C. for testing. After the plasma sample was treated, the concentration of the compound in the plasma was determined by liquid chromatography-mass spectrometry (LC-MS/MS). The pharmacokinetic parameters were calculated using Phoenix WinNonlin 7.0 based on the average blood concentration data at different time points.

[2] = Repeated-dosing pharmacokinetics test; format: in vivo, B-hPD-1/hPD-L1 humanized female mice; conditions: female, B-hPD-1/hPD-L1 (humanized), mouse, po; humanized mice, 50 mg/kg by gavage once a day for 12 days, plasma on day 12
Description: 24 6-week old B-hPD-1/hPD-L1 humanized female mice (purchased from Biocytogen (Jiangsu) Gene Biotechnology Co., Ltd.) were taken and the test compound was dissolved in a solvent containing 5% DMSO, 60% PEG400 and 35% purified water. The compound I-6 and three control molecules, Example 17, Compound 14 (INCB086550) and the aforementioned Example 180 were dosed. The compound was administered by gavage once a day in a dose of 50 mg/kg for 12 consecutive days, and blood was alternately collected through fundus vein plexus on day 12 of administration. The time points for blood collection were 15 min, 30 min, 1 h, 2 h, 4 h, 8 h, 24 h, 32 h and 48 h. About 0.1 mL of blood was collected and centrifuged in a centrifuge tube (heparin sodium for anticoagulation) at 5000 rpm for 5 min to separate plasma, and then frozen at −20° C. for testing. The concentration of the compound in the plasma was determined by liquid chromatography-mass spectrometry (LC-MS/MS). The pharmacokinetic parameters were calculated using Phoenix WinNonlin 7.0 based on the average blood concentration data at different time points.

[3] = clinical studies; cited from earlier work

## Cc1c(Nc2nccc3cc(CN4CC[C@@H](O)C4)cnc23)cccc1-c1cccc(-c2nc3cc(CN4CC[C@@H](C(=O)O)C4)cc(C#N)c3o2)c1C [Compound 14 (INCB086550)]
[1]
  AUC(0-t): 19600 ng·h/mL
  MRT: 5.9 h
  half-life: 234 min
[2]
  AUC(0-t): 10600 ng·h/mL
  MRT: 5 h
  half-life: 222 min

## Cn1c(C(=O)Nc2cccc(-c3cccc(NC(=O)c4nc5c(n4C)CCN(CCC46CCC(C(=O)O)(CC4)C6)C5)c3Cl)c2Cl)nc2c1CCN(CCC13CCC(C(=O)O)(CC1)C3)C2 [Example 17]
[1]
  AUC(0-t): 118000 ng·h/mL
  MRT: 4.2 h
  half-life: 228 min
[2]
  AUC(0-t): 58800 ng·h/mL
  MRT: 4.6 h
  half-life: 234 min

## atezolizumab: PD-1/PD-L1 antibody drug
[3]
  half time T1/2: 27 days

## nivolumab: PD-1/PD-L1 antibody drug
[3]
  half time T1/2: 25.2 days

## pembrolizumab: PD-1/PD-L1 antibody drug
[3]
  half time T1/2: 25 days
